The results in this text go back to US11903990B2, “Compositions and methods for treating and removing seborrheic keratoses” (priority 2017, dated 2024).

The experiment relates to seborrheic keratoses (SKs). Nature of the experiment: Formulary and performance observations on ingredients added to the SK treatment compositions. The format is in vivo, human. As to conditions: for performance on addition to the BWE composition: added antioxidant, with BWE; for improvement of the treatment of seborrheic keratosis: dietary antioxidant. The text has this: A number of formulary and performance observations were made in the various aforementioned pilot and case studies as well as additional variants thereof not reported here. […] Additionally, the addition of keratolytic agents and emollients appeared to help keep the composition from drying and improved the penetration of the composition into the SK.

For the molecule `O=C(O)/C=C/c1ccc(O)c(O)c1` [caffeic acid], the “performance on addition to the BWE composition” value (“performance on addition” below) is “no visible improvement” and the “improvement of the treatment of seborrheic keratosis” value (“improvement” for short) is reported as “not found to improve”.

As to `Oc1ccc(C=Cc2cc(O)cc(O)c2)cc1` [resveratrol], the “performance on addition” value is “no visible improvement” and the “improvement” value is reported as “not found to improve”.

Consider `CC(C)=CCC/C(C)=C/C=C/C(C)=C/C=C/C(C)=C/C=C/C=C(C)/C=C/C=C(C)/C=C/C=C(\C)CCC=C(C)C` [lycopene], for which the “performance on addition” value is given as “no visible improvement” and the “improvement” value is reported as “not found to improve”.

Consider `CC(=O)N[C@@H](CS)C(=O)O` [N-acetyl cysteine], for which the “performance on addition” value was “no visible improvement” and the “improvement” value was “not found to improve”.
